Data on 4 molecules can be found in ChEMBL document CHEMBL3867461, “Design, synthesis, and evaluation of (2S,4R)-Ketoconazole sulfonamide analogs as potential treatments for Metabolic Syndrome” (Bioorg Med Chem Lett, 2016).

Format in all cases: ADME, organism-based, Cavia porcellus
Details in all cases: in vivo

Series [1] can be described thus: Oral bioavailability in Hartley guinea pig at 10 mg/kg.
Series [2] can be described thus: Tmax in Hartley guinea pig at 1 mg/kg, iv administered as single dose.
A short description of series [3]: Volume of distribution in Hartley guinea pig at 1 mg/kg, iv administered as single dose.
The nature of series [4]: AUC (0 to infinity) in Hartley guinea pig at 10 mg/kg, po administered as single dose. Further details: dose 10 mg/kg, route oral, time infinity.
Series [5] in a line: Cmax in Hartley guinea pig at 10 mg/kg, po administered as single dose. Set-up: dose 10 mg/kg, route oral.
Series [6] can be described thus: Tmax in Hartley guinea pig at 10 mg/kg, po administered as single dose.
Series [7] can be described thus: Cmax in Hartley guinea pig at 1 mg/kg, iv administered as single dose. Further details: dose 1 mg/kg, route intravenous.
Series [8] in a line: AUC (0 to infinity) in Hartley guinea pig at 1 mg/kg, iv administered as single dose. Further details: dose 1 mg/kg, route intravenous, time infinity.

In the case of `N#CCS(=O)(=O)N1CCN(c2ccc(OC[C@@H]3CO[C@@](Cn4ccnc4)(c4ccc(Cl)cc4Cl)O3)cc2)CC1`, in series [1], the bioavailability came to 39.5%. Besides, the figures for the Tmax in series [2] and in series [6] were 4.8 min and 40.2 min, respectively. For the same molecule, the Vd in series [3] is 2.5 L/kg. Further, the AUC(0-inf) in series [4] turned out to be 4600 ng·h/mL; in series [8], 1160 ng·h/mL. In addition, the results for the Cmax in series [5] and in series [7] were 1970 ng/mL and 2090 ng/mL, respectively.
The molecule `CC(C)S(=O)(=O)N1CCN(c2ccc(OC[C@@H]3CO[C@@](Cn4ccnc4)(c4ccc(Cl)cc4Cl)O3)cc2)CC1` returned a bioavailability in series [1] of 10.4%. Moreover, the Tmax in series [2] turned out to be 11.4 min; in series [6], 40.2 min. The molecule also gave a Vd in series [3] of 3 L/kg. Further, the figures for the AUC(0-inf) in series [4] and in series [8] were 571 ng·h/mL and 547 ng·h/mL, respectively. Further, the highest concentration (Cmax) came to 358 ng/mL in series [5] and 534 ng/mL in series [7].
`O=S(=O)(C1CC1)N1CCN(c2ccc(OC[C@@H]3CO[C@@](Cn4ccnc4)(c4ccc(Cl)cc4Cl)O3)cc2)CC1`: in series [1], the bioavailability stood at 98.5%. Besides, the Tmax in series [2] amounted to 4.8 min; in series [6] it was 90 min. The molecule also had a distribution volume (Vd) in series [3] of 2.9 L/kg. Also, the AUC(0-inf) in series [4] came to 7580 ng·h/mL; in series [8], 715 ng·h/mL. Also, the figures for the highest concentration (Cmax) in series [5] and in series [7] were 1560 ng/mL and 514 ng/mL, respectively.
Molecule `CCS(=O)(=O)N1CCN(c2ccc(OC[C@@H]3CO[C@@](Cn4ccnc4)(c4ccc(Cl)cc4Cl)O3)cc2)CC1` showed a bioavailability in series [1] of 61.4%. Further, the Tmax turned out to be 6 min in series [2] and 70.2 min in series [6]. The molecule further showed a Vd in series [3] of 4.4 L/kg. Besides, the AUC(0-inf) in series [4] was determined as 3710 ng·h/mL; in series [8], 560 ng·h/mL. The maximum concentration (Cmax) in series [5] amounted to 710 ng/mL; in series [7], 446 ng/mL.
